According to patent publication US20250352512A2, “C4-S[…] DERIVATIVES AND METHODS OF USING” (priority 2022, published 2025):
Where two headings read alike, the source gives them in different places.

What was measured:
5-HT1A receptor = target: T1, 5-HT1A receptor (Homo sapiens, UniProt P08908); type: cell-based; conditions: for 5-HT1A receptor modulation: comparison of +5-HT1A with -5-HT1A cultures, 4 mM forskolin
T1 construct: host or cells: CHO-K1
T1 sequence (P08908 1-422): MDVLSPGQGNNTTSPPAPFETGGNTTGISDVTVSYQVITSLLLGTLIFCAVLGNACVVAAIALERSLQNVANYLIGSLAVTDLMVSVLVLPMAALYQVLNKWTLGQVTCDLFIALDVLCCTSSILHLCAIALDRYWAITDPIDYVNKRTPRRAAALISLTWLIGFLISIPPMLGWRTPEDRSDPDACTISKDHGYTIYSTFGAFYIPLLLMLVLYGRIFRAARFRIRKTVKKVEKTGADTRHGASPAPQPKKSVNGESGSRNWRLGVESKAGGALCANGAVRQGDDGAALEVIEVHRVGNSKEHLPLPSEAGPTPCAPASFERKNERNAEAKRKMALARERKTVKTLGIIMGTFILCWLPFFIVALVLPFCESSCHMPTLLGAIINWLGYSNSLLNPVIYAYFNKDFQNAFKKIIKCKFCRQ

[1] = target: T2, 5-HT2A receptor (5-HT2AR) (Mus musculus, UniProt P35363); assay: Drug-induced Head Twitch Response (HTR) in mice; type: in vivo; conditions: C57BL/6-Elite mice, i.p. 1 mg/kg, 15-to-30-minute window following administration
T2 construct: tissue Charles River; host or cells: living C57BL/6-Elite mice (neuronal receptor)
T2 sequence (P35363 whole entry): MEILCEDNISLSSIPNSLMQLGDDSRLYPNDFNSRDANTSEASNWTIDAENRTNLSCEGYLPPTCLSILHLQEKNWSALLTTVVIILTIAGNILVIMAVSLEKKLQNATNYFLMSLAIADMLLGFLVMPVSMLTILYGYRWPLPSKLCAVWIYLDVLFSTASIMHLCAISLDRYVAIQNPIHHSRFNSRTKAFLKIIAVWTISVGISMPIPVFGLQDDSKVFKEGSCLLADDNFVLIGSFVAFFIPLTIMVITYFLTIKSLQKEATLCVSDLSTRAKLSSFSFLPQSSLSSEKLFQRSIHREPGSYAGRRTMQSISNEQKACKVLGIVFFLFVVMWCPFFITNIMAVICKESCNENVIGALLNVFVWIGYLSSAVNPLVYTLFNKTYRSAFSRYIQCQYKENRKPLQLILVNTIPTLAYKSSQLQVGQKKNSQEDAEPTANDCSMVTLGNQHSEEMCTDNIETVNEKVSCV

5-HT2A receptor = 5-HT2A receptor (Homo sapiens, UniProt P28223); assay: [3H]ketanserin radioligand competition binding assay (SPA); conditions: fixed (1 nM) [3H]ketanserin, membranes containing 5-HT2A
Sequence of 5-HT2A receptor (P28223 whole entry): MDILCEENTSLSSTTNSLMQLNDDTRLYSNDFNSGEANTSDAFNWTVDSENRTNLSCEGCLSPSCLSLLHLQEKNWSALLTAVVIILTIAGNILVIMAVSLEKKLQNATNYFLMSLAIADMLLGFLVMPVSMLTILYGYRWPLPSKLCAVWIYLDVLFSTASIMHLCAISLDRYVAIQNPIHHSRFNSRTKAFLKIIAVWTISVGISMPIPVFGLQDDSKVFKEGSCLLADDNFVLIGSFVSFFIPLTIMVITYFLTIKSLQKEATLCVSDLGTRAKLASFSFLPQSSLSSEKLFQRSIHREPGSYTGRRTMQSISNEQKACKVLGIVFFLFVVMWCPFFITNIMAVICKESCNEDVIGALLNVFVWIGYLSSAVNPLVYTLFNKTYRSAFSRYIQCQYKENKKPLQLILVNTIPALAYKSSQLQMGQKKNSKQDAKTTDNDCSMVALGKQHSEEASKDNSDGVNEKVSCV

[2] = Metabolic stability / psilocin release in human liver S9 fractions; type: in vitro ADME; conditions: 2.5 μM, 400 μg/ml HLS9, NADPH, 37° C.
Source text: (§1) A fundamental evaluation in drug development is the assessment of absorption, distribution, metabolism, excretion, and pharmacokinetics (ADME/PK) (Eddershaw et al., 2000, Drug Discovery Today 5(9): 409-414). […] Drug stability upon exposure to human liver microsomes and liver S9 cellular fractions is a common in vitro assay to approximate in vivo, liver-based drug metabolism (Richardson et al., 2016 Drug Metabolism Letters 10:83-90). First-pass metabolism is also often approximated in vitro using intestinal microsome and cellular S9 fractions (Hatley et al., 2017, Biopharmaceuticals & Drug Disposition, 38(2):155-160). […] Supernatants were analyzed for the presence of candidate prodrugs (parent molecule) and psilocin (the predicted metabolite) using Orbitrap LC-MS (Thermo Scientific) using previously described methods (Menendez-Perdomo et al., 2021, J. Mass Spectrom., 56: e4683). […] Assay concentrations (μM) of both parent ‘prodrug’ molecule and psilocin metabolite, as quantified through LC-MS using routine standard curve procedures, were plotted as functions of assay time (minutes). The metabolism rate (TI/2) was determined from the metabolism curve plot using the one phase decay feature of GraphPad PRISM software (Version 9.2.0). The quantity of parent prodrug at time zero was set as 100%. […]

[3] = Stability assay in enzyme-free control buffer; type: in vitro ADME; conditions: enzyme-free buffer pH 7.4, 37° C., 2 hours
Source text: as §1

[4] = Metabolic stability / psilocin release in human AB serum; type: in vitro ADME; conditions: 10% human AB serum
Source text: as §1

[5] = Metabolic stability / psilocin release in human liver microsomes; type: in vitro ADME; conditions: 2.5 μM, 400 μg/ml HLM, NADPH, 37° C.
Source text: as §1

[6] = +5-HT1A cells stimulated with 4 mM forskolin

## CN(C)CCc1c[nH]c2cccc(O[Si](c3ccccc3)(c3ccccc3)C(C)(C)C)c12 [A(III)]
5-HT1A receptor
  5-HT1A receptor modulation: suggests receptor modulation at higher ligand concentrations
[1]
  incidences of Head Twitch Response (HTR) relative to vehicle: Elevated incidences of HTR

## CN(C)CCc1c[nH]c2cccc(OC(=O)OCC(Cl)(Cl)Cl)c12 [B(IV)]
5-HT1A receptor
  5-HT1A receptor modulation: suggests no receptor modulation
[1]
  incidences of Head Twitch Response (HTR) relative to vehicle: Elevated incidences of HTR

## CCCCCCOC(=O)Oc1cccc2[nH]cc(CCN(C)C)c12 [B(V)]
5-HT1A receptor
  5-HT1A receptor modulation: suggests no receptor modulation

## CCC(=O)OCOc1cccc2c1c(CCN(C)C)cn2C(=O)CC [D(XIX)]
5-HT1A receptor
  5-HT1A receptor modulation: suggests significant receptor modulation
[1]
  incidences of Head Twitch Response (HTR) relative to vehicle: Elevated incidences of HTR

## CN(C)CCc1c[nH]c2cccc(OP3(=O)OCC(C)(C)CO3)c12 [F(II)]
5-HT1A receptor
  5-HT1A receptor modulation: reveals receptor modulation
[1]
  incidences of Head Twitch Response (HTR) relative to vehicle: Elevated incidences of HTR

## CN(C)CCc1c[nH]c2cccc(O)c12 [psilocin, reference compound]
5-HT1A receptor; [6]
  cAMP levels with increasing doses of ligand: reduction in cAMP levels
5-HT2A receptor
  competition binding at the 5-HT2A receptor: binding

## CN(C)CCc1c[nH]c2cccc(OP(=O)(O)O)c12 [psilocybin]
[2]
  stability and conversion to psilocin in liver fractions (HLS9): stable in liver fractions with no conversion to psilocin
[3]
  stability in assay buffer: stability of psilocybin was confirmed in assay buffer
[4]
  stability and conversion to psilocin in serum: stable in serum with no conversion to psilocin
[5]
  stability and conversion to psilocin in liver fractions (HLM): stable in liver fractions with no conversion to psilocin

## NCCc1c[nH]c2ccc(O)cc12 [serotonin, reference compound]
5-HT1A receptor
  cAMP levels with increasing doses of ligand: reduction in cAMP levels

## N[C@@H](Cc1c[nH]c2ccccc12)C(=O)O [tryptophan, reference compound]
5-HT1A receptor; [6]
  cAMP levels with increasing doses of ligand: no reduction in cellular cAMP levels
5-HT2A receptor
  competition binding at the 5-HT2A receptor: no binding
